The text below walks through data of patent US9205086B2, “Cancer therapy using a combination of a Hsp90 inhibitory compounds and a EGFR inhibitor” (Synta Pharmaceuticals Corp., priority 2010, dated 2015).

The subject of data set [1] is human NSCLC cell line HCC827. Nature of the data set: SCID mouse xenograft, tumor growth (% T/C). The format is in vivo. The following applies: for % T/C value: day 34. The protocol: FBS was obtained from ATCC and all other reagents were obtained from Invitrogen Corp. (Carlsbad, Calif., USA). Cells that had been cryopreserved in liquid nitrogen were rapidly thawed at 37° C. and transferred to a tissue culture flask containing growth media and then incubated at 37° C. in a 5% CO2 incubator. […] Cultures were passaged by washing with 10 mL of room temperature phosphate buffered saline (PBS) and then disassociating cells by adding 5 mL 1× trypsin-EDTA and incubating at 37° C. until the cells detached from the surface of the flask. To inactivate the trypsin, 5 mL of growth media was added and then the contents of the flask were centrifuged to pellet the cells. The supernatant was aspirated and the cell pellet was resuspended in 10 mL of growth media and the cell number determined using a hemocytometer. Cells were seeded into 175 cm^2 flasks containing 50 mL of growth media and incubated at 37° C. in a 5% CO2 incubator.

A short description of data set [2]: In vivo pharmacokinetic (drug-drug interaction) study in SCID mice, plasma by HPLC. Details: species or system mouse. The following applies: for AUCINF / T½ / Cmax: plasma; for Cmax: female, CB17/Icr-Prkdc^scid/Crl (SCID), mouse. An excerpt:
Six to eight week old, female CB17/Icr-Prkdc^scid/Crl (SCID) mice were obtained from Charles River Laboratories (Wilmington, Mass., USA). Animals were housed 4-5/cage in micro-isolators, with a 12 hr/12 hr light/dark cycle, acclimated for at least 1 week prior to use and fed normal laboratory chow ad libitum.

Data set [3] deals with RERF-LC-AI^IVP human lung tumor cells. Briefly: Nude mouse xenograft, tumor growth. The format is in vivo. As to conditions: 5 times per week, 15 doses. The protocol:
The human squamous non-small cell lung cancer cell line, RERF-LC-AI (RCB0444; S. Kyoizumi, et al., Cancer. Res. 45:3274-3281, 1985), was obtained from the Riken Cell Bank (Tsukuba, Ibaraki, Japan). The cell line was cultured in growth media prepared from 50% Dulbecco's Modified Eagle Medium (high glucose), 50% RPMI Media 1640, 10% fetal bovine serum (FBS), 1% 100× L-glutamine, 1% 100× penicillin-streptomycin, 1% 100× sodium pyruvate and 1% 100×MEM non-essential amino acids. FBS was obtained from American Type Culture Collection (Manassas, Va., USA) and all other reagents were obtained from Invitrogen Corp. (Carlsbad, Calif., USA). Approximately 4-5×10(6) cells that had been cryopreserved in liquid nitrogen were rapidly thawed at 37° C. and transferred to a 175 cm^2 tissue culture flask containing 50 ml of growth media and then incubated at 37° C. in a 5% CO2 incubator.
The growth media was replaced every 2-3 days until the flask became 90% confluent, typically in 5-7 days. […] The supernatant was aspirated and the cell pellet was resuspended in 10 ml of growth media and the cell number determined using a hemocytometer. […]
Studies were conducted on animals between 8 and 12 weeks of age at implantation. […] Tumor volumes (V) were calculated by caliper measurement of the width (W), length (L) and thickness (T) of tumors using the following formula: V=0.5236×(L×W×T). […]

Data set [4] is described as follows: Body weight change in nude mouse xenograft study. It is filed as in vivo. As to conditions: 200 mg/kg body weight i.p., 5 times per week, 15 doses, tumor-bearing nude mice. The protocol: The Hsp90 inhibitor, 17-allylamino-17-demethoxygeldanamycin (17-AAG), was employed as a positive control (Albany Molecular Research, Albany, N.Y., USA). […] Animals were intraperitoneally (i.p.) injected with this solution at 10 ml per kg body weight on a schedule of 5 days per week (Monday, Tuesday, Wednesday, Thursday and Friday, with no dosing on Saturday and Sunday) for a total of 15 doses.

The target in data set [5] is JAK2 mutant JAK2V617F (Homo sapiens, UniProt O60674, V617F). As to conditions: cited from earlier work.
JAK2 mutant JAK2V617F, sequence (O60674 whole entry V617F): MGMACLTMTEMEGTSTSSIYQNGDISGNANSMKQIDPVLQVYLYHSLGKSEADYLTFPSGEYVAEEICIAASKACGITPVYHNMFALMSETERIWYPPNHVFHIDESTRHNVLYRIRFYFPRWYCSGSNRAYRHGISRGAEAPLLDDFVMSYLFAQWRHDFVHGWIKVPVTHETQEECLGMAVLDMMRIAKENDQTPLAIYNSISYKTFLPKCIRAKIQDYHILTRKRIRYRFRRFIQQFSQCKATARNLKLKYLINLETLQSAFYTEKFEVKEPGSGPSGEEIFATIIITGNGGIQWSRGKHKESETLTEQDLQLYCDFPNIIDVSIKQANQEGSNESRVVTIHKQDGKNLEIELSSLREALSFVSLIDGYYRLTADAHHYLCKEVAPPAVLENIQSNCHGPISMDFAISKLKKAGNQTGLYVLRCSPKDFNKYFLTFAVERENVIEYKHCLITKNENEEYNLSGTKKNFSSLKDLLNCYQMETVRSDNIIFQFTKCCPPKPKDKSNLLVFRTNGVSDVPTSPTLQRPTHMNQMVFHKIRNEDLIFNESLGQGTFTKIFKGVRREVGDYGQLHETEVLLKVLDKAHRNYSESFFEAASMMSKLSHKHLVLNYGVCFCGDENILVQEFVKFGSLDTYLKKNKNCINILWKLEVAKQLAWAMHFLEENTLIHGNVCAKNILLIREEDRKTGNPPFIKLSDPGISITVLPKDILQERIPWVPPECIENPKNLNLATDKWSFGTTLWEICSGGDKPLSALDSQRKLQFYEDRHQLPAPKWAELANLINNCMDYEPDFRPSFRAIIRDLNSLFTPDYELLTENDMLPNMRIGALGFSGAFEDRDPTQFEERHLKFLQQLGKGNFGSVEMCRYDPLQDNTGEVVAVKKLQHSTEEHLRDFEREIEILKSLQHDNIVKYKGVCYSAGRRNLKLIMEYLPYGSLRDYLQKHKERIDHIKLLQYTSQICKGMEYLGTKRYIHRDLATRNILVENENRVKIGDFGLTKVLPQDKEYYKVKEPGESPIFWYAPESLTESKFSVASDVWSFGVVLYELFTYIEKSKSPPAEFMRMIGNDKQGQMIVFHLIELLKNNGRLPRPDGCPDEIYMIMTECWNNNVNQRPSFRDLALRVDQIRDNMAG
[6] abbreviates: 50 mg/kg Compound 1 plus 25 mg/kg erlotinib HCl, SCID mice.
Setting [7] is: analyte Compound 1, Compound 1 50 mg/kg + erlotinib HCl 25 mg/kg, single dose.
The mark [8] stands for this setting: analyte Compound 1, Compound 1 50 mg/kg alone, single i.v. dose.
Where [9] appears, read: analyte erlotinib HCl, erlotinib HCl 25 mg/kg + Compound 1 50 mg/kg, single dose.
Where [10] appears, read: analyte erlotinib HCl, erlotinib HCl 25 mg/kg alone, single dose.

Entries after “also recorded” stand apart in the source; their conditions may differ. Structures can show the parent of a compound that is named as a salt.

In general, Cmax refers to the highest concentration seen after dosing. Consider `CC(C)c1cc(-c2nnc(O)n2-c2ccc3c(ccn3C)c2)c(O)cc1O` [Compound 1, 3-(2,4-DIHYDROXY-5- ISOPROPYL-PHENYL)-4-(1- METHYL-INDOL-5-YL)-5- HYDROXY-[1,2,4]TRIAZOLE], for which the “HCC827 tumor growth in SCID mice” value in data set [1] (Compound 1 50 mg/kg i.v. once per week, 3 doses, 50 mg/kg) is “moderately inhibited HCC827 tumor growth”. For the same compound, the “% T/C value” in data set [1] (Compound 1 50 mg/kg i.v. once per week) is listed as 15%. Further, in data set [2] (setting [6]), the “effect of erlotinib HCl on plasma half-life, Cmax and total plasma exposure (AUCinf) of Compound 1” value is “no significant effect; also recorded: did not affect”. Besides, the AUCINF in data set [2] (setting [7]) came out at 36.0 μMXHR; in data set [2] (setting [8]), 38.5 μMXHR. Also, the T½ is 4.5 h in data set [2] (setting [7]) and 4.7 h in data set [2] (setting [8]). Moreover, the maximum concentration (Cmax) in data set [2] (iv, 50 mg/kg, analyte Compound 1, Compound 1 50 mg/kg + erlotinib HCl 25 mg/kg, single dose) came out at 93.4 µM; in data set [2] (iv, 50 mg/kg, analyte Compound 1, Compound 1 50 mg/kg alone, single i.v. dose), 118 µM.
Regarding `C=CCNC1=C2C[C@@H](C)C[C@H](OC)[C@H](O)[C@@H](C)/C=C(\C)[C@H](OC(N)=O)[C@@H](OC)/C=C\C=C(/C)C(=O)NC(=CC1=O)C2=O` [Compound 17-AAG, 17-allylamino-17-demethoxygeldanamycin, reference compound], the “growth rate of RERF-LC-AI^IVP human lung tumor cells in nude mice” value in data set [3] (75 mg/kg body weight i.p.) was “inhibited tumor growth; also recorded: decreased the growth rate”.
For `CCc1cc(-c2nnc(S)n2-c2ccc(OC)c3c2ccn3C(C)C)c(O)cc1O` [Compound 26, 3-(2,4-DIHYDROXY-5-ETHYL- PHENYL)-4-(1-ISOPROPYL-7- METHOXY-INDOL-4-YL)-5- MERCAPTO[1,2,4]TRIAZOLE], the “growth rate of RERF-LC-AI^IVP human lung tumor cells in nude mice” value in data set [3] (200 mg/kg body weight i.p.) is “inhibited tumor growth; also recorded: decreased the growth rate”. The “overt toxicity (effect on body weights)” value in data set [4] is on record as “not associated with overt toxicity; also recorded: not overtly toxic”.
Take `C#Cc1cccc(Nc2ncnc3cc(OCCOC)c(OCCOC)cc23)c1` [erlotinib HCl]: the “inhibition of JAK2V617F” value in data set [5] is given as “potently inhibits”. In addition, the “% T/C value” in data set [1] (erlotinib HCl 25 mg/kg p.o. once per week) was 23%. Further, the “effect of Compound 1 on plasma half-life, Cmax and total plasma exposure (AUCinf) of erlotinib HCl” value is on record as “little or no effect” in data set [2] (setting [6]) and “little effect” in data set [2] (50 mg/kg Compound 1 plus 25 mg/kg erlotinib HCl, SCID mice, listed as erlotinib). For the same compound, the AUCINF in data set [2] (setting [9]) came to 39.0 μMXHR; in data set [2] (setting [10]), 28.1 μMXHR. Besides, the T½ was 2.8 h in data set [2] (setting [9]) and 1.7 h in data set [2] (setting [10]). Also, in data set [2] (combination with Compound 1 versus erlotinib HCl alone), the “increase in total plasma exposure of erlotinib HCl” value is recorded as 39%. In addition, the peak concentration (Cmax) stood at 4.94 µM in data set [2] (intravenous, 25 mg/kg, analyte erlotinib HCl, erlotinib HCl 25 mg/kg + Compound 1 50 mg/kg, single dose) and 4.11 µM in data set [2] (intravenous, 25 mg/kg, analyte erlotinib HCl, erlotinib HCl 25 mg/kg alone, single dose).
